Patent US8507489B2, “Bicyclic triazoles as protein kinase modulators” (SGX Pharmaceuticals, Inc., priority 2006, dated 2013)
Structures can show the parent of a compound that is named as a salt.

Legend:
[1] = biological target: c-MET (Homo sapiens, UniProt P08581); assay: MET luminescence-based enzyme assay (Kinase-Glo); type: biochemical
Method: The subscript designates positive or negative controls. The Z′ score for a robust screening assay should be ≧0.50. The typical threshold=μ+−3*σ+. Any value that falls below the threshold was designated a “hit”.
MET Luminescence-Based Enzyme Assay
MET kinase (see below), Kinase-Glo™ (Promega Cat#V6712).
Negative controls contained 10 μM staurosporine.

[2] = system: GTL16 cells; assay: 96-well XTT cell survival assay (GTL16 cells); type: cell-based
Method: GTL16 cells were maintained in DMEM Medium supplemented with 10% fetal bovine serum (FBS) 2 mM L-Glutamine and 100 units penicillin/100 μg streptomycin, at 37° C. in 5% CO2.
Compounds were tested in the following assays in duplicate.
96-well XTT assay (GTL16 cells): One day prior to assay the growth media was aspirated off and assay media was added to cells. On the day of the assay, the cells were grown in assay media containing various concentrations of compounds (duplicates) on a 96-well flat bottom plate for 72 hours at 37° C. in 5% CO2. The starting cell number was 5000 cells per well and volume was 120 μl. At the end of the 72-hour incubation, 40 μl of XTT labeling mixture (50:1 solution of sodium 3′-[1-(phenylaminocarbonyl)-3,4-tetrazolium]-bis (4-methoxy-6-nitro) benzene sulfonic acid hydrate and Electron-coupling reagent: PMS (N-methyl dibenzopyrazine methyl sulfate) were added to each well of the plate. After an additional 5 hours of incubation at 37° C., the absorbance reading at 450 nm with a background correction of 650 nm was measured with a spectrophotometer.

Sequence of c-MET (P08581 1078-1345 limits assumed): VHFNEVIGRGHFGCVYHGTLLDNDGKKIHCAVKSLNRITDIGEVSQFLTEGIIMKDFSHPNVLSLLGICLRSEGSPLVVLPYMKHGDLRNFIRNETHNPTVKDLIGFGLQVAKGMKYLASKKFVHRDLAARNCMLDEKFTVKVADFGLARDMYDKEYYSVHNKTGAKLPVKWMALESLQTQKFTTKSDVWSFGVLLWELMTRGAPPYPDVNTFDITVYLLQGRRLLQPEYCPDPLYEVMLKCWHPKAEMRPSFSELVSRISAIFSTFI

IC50 [1] | Compound | IC50 ([2]; Homo sapiens, GTL 16, 72 hours) | IC50 ([2]; 72 hours)
< 100 nM | Cn1cc(-c2cnc3[nH]cc(Sc4nnc5ccc(-c6cnn(C)c6)nn45)c3c2)cn1 [Compound 46, 6-(1-Methyl-1H-pyrazol-4-yl)-3-[5-(1-methyl-1H-pyrazol-4-yl)-1H-pyrrolo[2,3-b]pyridin-3-ylsulfanyl]-[1,2,4]triazolo[4,3-b]pyridazine] | ≤ 100 nM | –
< 100 nM | Fc1cccc(-c2cnc3nnc(Sc4ccc5ncccc5c4)n3n2)c1 [Compound 9, 6-[6-(3-Fluoro-phenyl)-[1,2,4]triazolo[4,3-b][1,2,4]triazin-3-ylsulfanyl]-quinoline] | ≤ 100 nM | –
< 100 nM | (2:1) mixture of 3-(7-Methyl-benzothiazol-6-ylsulfanyl)-6-(1-methyl-1H-pyrazol-4-yl)-[1,2,4]triazolo[4,3-b]pyridazine and 3-(5-Methyl-benzothiazol-6-ylsulfanyl)-6-(1-methyl-1H-pyrazol-4-yl)-[1,2,4]triazolo[4,3-b]pyridazine [Compound 8] | – | ≤ 100 nM
< 100 nM | Cc1ccc2nnc(Sc3ccc4ncc(-c5cnn(C6CN(C(C)C)C6)c5)cc4c3)n2n1 [Compound 69, 3-[1-(1-Isopropyl-azetidin-3-yl)-1H-pyrazol-4-yl]-6-(6-methyl-[1,2,4]triazolo[4,3-b]pyridazin-3-ylsulfanyl)-quinoline] | ≤ 100 nM | –
< 100 nM | c1cnc2ccc(Sc3nnc4ccc(-c5cn[nH]c5)nn34)cc2c1 [Compound 39, 6-[6-(1H-Pyrazol-4-yl)-[1,2,4]triazolo[4,3-b]pyridazin-3-ylsulfanyl]-quinoline] | 100 to 1000 nM | –
< 100 nM | Cc1cc2ncccc2cc1Sc1nnc2ccc(-c3cnn(C)c3)nn12 [Compound 16, 7-Methyl-6-[6-(1-methyl-1H-pyrazol-4-yl)-[1,2,4]triazolo[4,3-b]pyridazin-3-ylsulfanyl]-quinoline] | ≤ 100 nM | –
100 to 1000 nM | Cn1cc(-c2ccc3nnc(Sc4ccc5ncncc5c4)n3n2)cn1 [Compound 12, 6-[6-(1-Methyl-1H-pyrazol-4-yl)-[1,2,4]triazolo[4,3-b]pyridazin-3-ylsulfanyl]-quinazoline] | 100 to 1000 nM | –
< 100 nM | Cc1ccc2nnc(Sc3ccc4ncc(-c5cnn(CC(=O)O)c5)cc4c3)n2n1 [Compound 42, {4-[6-(6-Methyl-[1,2,4]triazolo[4,3-b]pyridazin-3-ylsulfanyl)-quinolin-3-yl]-pyrazol-1-yl}-acetic acid] | 1000 to 10000 nM | –
< 100 nM | Cc1ccc2nnc(Sc3ccc4ncc(-c5cnn(C(C)(C)C(=O)O)c5)cc4c3)n2n1 [Compound 45, 2-Methyl-2-{4-[6-(6-methyl-[1,2,4]triazolo[4,3-b]pyridazin-3-ylsulfanyl)-quinolin-3-yl]-pyrazol-1-yl}-propionic acid] | 1000 to 10000 nM | –
< 100 nM | Cn1cc(-c2ccc3nnc(Sc4ccc5ncccc5c4F)n3n2)cn1 [Compound 55, 5-Fluoro-6-[6-(1-methyl-1H-pyrazol-4-yl)-[1,2,4]triazolo[4,3-b]pyridazin-3-ylsulfanyl]-quinoline] | ≤ 100 nM | –
< 100 nM | Cc1ccc2nnc(Sc3ccc4ncc(-c5cn[nH]c5)cc4c3)n2n1 [Compound 59, 6-(6-Methyl-[1,2,4]triazolo[4,3-b]pyridazin-3-ylsulfanyl)-3-(1H-pyrazol-4-yl)-quinoline] | 100 to 1000 nM | –
< 100 nM | CNC(=O)c1ccc(-c2ccc3nnc(Sc4cc5cccnc5cc4F)n3n2)cc1F [Compound 17, 2-Fluoro-4-[3-(7-fluoro-quinolin-6-ylsulfanyl)-[1,2,4]triazolo[4,3-b]pyridazin-6-yl]-N-methyl-benzamide] | ≤ 100 nM | –
< 100 nM | Cc1ccc2nnc(Sc3ccc4ncc(-c5cnn(C)c5)cc4c3F)n2n1 [Compound 56, 5-Fluoro-3-(1-methyl-1H-pyrazol-4-yl)-6-(6-methyl-[1,2,4]triazolo[4,3-b]pyridazin-3-ylsulfanyl)-quinoline] | ≤ 100 nM | –
< 100 nM | Cc1ccc2nnc(Sc3ccc4ncc(-c5cnn(C6CN(C(=O)OC(C)(C)C)C6)c5)cc4c3)n2n1 [Compound 64, 3-{4-[6-(6-Methyl-[1,2,4]triazolo[4,3-b]pyridazin-3-ylsulfanyl)-quinolin-3-yl]-pyrazol-1-yl}-azetidine-1-carboxylic acid tert-butyl ester] | ≤ 100 nM | –
< 100 nM | CCN1CC(Cn2cc(-c3cnc4ccc(Sc5nnc6ccc(C)nn56)cc4c3)cn2)C1 [Compound 67, 3-[1-(1-Ethyl-azetidin-3-ylmethyl)-1H-pyrazol-4-yl]-6-(6-methyl-[1,2,4]triazolo[4,3-b]pyridazin-3-ylsulfanyl)-quinoline] | ≤ 100 nM | –
100 to 1000 nM | Fc1cccc(-c2ccc3nnc(Sc4ccc5ncsc5c4)n3n2)c1 [Compound 6, 3-(Benzothiazol-6-ylsulfanyl)-6-(3-fluoro-phenyl)-[1,2,4]triazolo[4,3-b]pyridazine] | 100 to 1000 nM | –
< 100 nM | c1ccc(-c2ccc3nnc(Sc4ccc5ncccc5c4)n3n2)cc1 [Compound 1, 6-(6-Phenyl-[1,2,4]triazolo[4,3-b]pyridazin-3-ylsulfanyl)-quinoline] | ≤ 100 nM | –

Continued, compound first:

Compound | IC50 [1] | IC50 ([2]; Homo sapiens, GTL 16, 72 hours) | IC50 ([2]; 72 hours)
CCn1cc(-c2cnc3ccc(Sc4nnc5ccc(C)nn45)cc3c2)cn1 [Compound 66, 3-(1-Ethyl-1H-pyrazol-4-yl)-6-(6-methyl-[1,2,4]triazolo[4,3-b]pyridazin-3-ylsulfanyl)-quinoline] | < 100 nM | ≤ 100 nM | –
Cn1cc(-c2ccc3nnc(Sc4ccc5nccc(OCCO)c5c4)n3n2)cn1 [Compound 50, 2-{6-[6-(1-Methyl-1H-pyrazol-4-yl)-[1,2,4]triazolo[4,3-b]pyridazin-3-ylsulfanyl]-quinolin-4-yloxy}-ethanol] | < 100 nM | ≤ 100 nM | –
Cn1cc(-c2ccc3nnc(Sc4ccc5ncc(N)cc5c4)n3n2)cn1 [Compound 33, 6-[6-(1-Methyl-1H-pyrazol-4-yl)-[1,2,4]triazolo[4,3-b]pyridazin-3-ylsulfanyl]-quinolin-3-ylamine, trifluoroacetic acid salt] | < 100 nM | ≤ 100 nM | –
Cc1ccc2nnc(Sc3cc4cc(-c5cnn(C)c5)cnc4cc3F)n2n1 [Compound 52, 7-Fluoro-3-(1-methyl-1H-pyrazol-4-yl)-6-(6-methyl-[1,2,4]triazolo[4,3-b]pyridazin-3-ylsulfanyl)-quinoline] | < 100 nM | ≤ 100 nM | –
CNC(=O)c1ccc(-c2ccc3nnc(Sc4ccc5ncccc5c4)n3n2)cc1F [Compound 11, 2-Fluoro-N-methyl-4-[3-(quinolin-6-ylsulfanyl)-[1,2,4]triazolo[4,3-b]pyridazin-6-yl]-benzamide] | < 100 nM | 100 to 1000 nM | –
CN(C)CCn1cnc2ccc(Sc3nnc4ccc(-c5cnn(C)c5)nn34)cc21 [Compound 32, Dimethyl-(2-{6-[6-(1-methyl-1H-pyrazol-4-yl)-[1,2,4]triazolo[4,3-b]pyridazin-3-ylsulfanyl]-benzoimidazol-1-yl}-ethyl)-amine, formic acid salt] | 100 to 1000 nM | 1000 to 10000 nM | –
Cn1cc(-c2ccc3nnc(Sc4cc5cccnc5cc4F)n3n2)cn1 [Compound 10, 7-Fluoro-6-[6-(1-methyl-1H-pyrazol-4-yl)-[1,2,4]triazolo[4,3-b]pyridazin-3-ylsulfanyl]-quinoline] | < 100 nM | ≤ 100 nM | –
Cn1cc(-c2ccc3nnc(Sc4ccc5ncsc5c4)n3n2)cn1 [Compound 14, 3-(Benzothiazol-6-ylsulfanyl)-6-(1-methyl-1H-pyrazol-4-yl)-[1,2,4]triazolo[4,3-b]pyridazine] | < 100 nM | ≤ 100 nM | –
Cc1ccc2nnc(Sc3c[nH]c4ncc(-c5cnn(C)c5)cc34)n2n1 [Compound 53, 6-Methyl-3-[5-(1-methyl-1H-pyrazol-4-yl)-1H-pyrrolo[2,3-b]pyridin-3-ylsulfanyl]-[1,2,4]triazolo[4,3-b]pyridazine] | < 100 nM | 100 to 1000 nM | –
Cc1ccc2nnc(Sc3ccc4ncc(-c5cnn(CCN6CCOCC6)c5)cc4c3)n2n1 [Compound 44, 6-(6-Methyl-[1,2,4]triazolo[4,3-b]pyridazin-3-ylsulfanyl)-3-[1-(2-morpholin-4-yl-ethyl)-1H-pyrazol-4-yl]-quinoline] | < 100 nM | ≤ 100 nM | –
Cn1cc(-c2ccc3nnc(Sc4ccc5ncccc5c4[N+](=O)[O-])n3n2)cn1 [Compound 13, 6-[6-(1-Methyl-1H-pyrazol-4-yl)-[1,2,4]triazolo[4,3-b]pyridazin-3-ylsulfanyl]-5-nitro-quinoline] | 100 to 1000 nM | 100 to 1000 nM | –
Cc1ccc2nnc(Sc3ccc4ncc(-c5cnn(C6CN(C)C6)c5)cc4c3)n2n1 [Compound 63, 3-[1-(1-Methyl-azetidin-3-yl)-1H-pyrazol-4-yl]-6-(6-methyl-[1,2,4]triazolo[4,3-b]pyridazin-3-ylsulfanyl)-quinoline] | < 100 nM | ≤ 100 nM | –
